{"source": "paper PMC2877875", "about": "“Characterisation of the bifunctional dihydrofolate synthase–folylpolyglutamate synthase from Plasmodium falciparum; a potential novel target for antimalarial antifolate inhibition” (Molecular and Biochemical Parasitology, 2010)", "molecules": {"B1": {"name": "PfDHFS–FPGS (DHFS activity) (Plasmodium falciparum 3D7) (protein)", "chain": "MEKNQNDKSNKNDIIHMNDKSGNYDKNNINNFIDKNDEHDMSDILHKINNEEKKYEEIKSYSECLELLYKTHALKLGLDNPKKLNESFGHPCDKYKTIHIAGTNGKGSVCYKIYTCLKIKKFKVGLFSSPHIFSLRERIIVNDEPISEKELIHLVNEVLNKAKKLYINPSFFEIITLVAFLHFLNKKVDYAIIETGIGGRLDATNILTKPEVIVITSIGYDHLNILGDNLPIICNEKIGIFKKDANVVIGPSVAIYKNVFDKAKELNCTIHTVVPEPRGERYNEENSRIALRTLEILNISIDYFLKSIIPIKPPLRIQYLATEQIQHIKKKFSPDNLEHNVQYPLAVILDVGHNETAIDRLCTDINYFHKGQNIRICISITKPRNLSVFHPFIAQFGDTLKDIFYLPSLNERTYDFEEIVEMLNNEEEIKNEIKELILSSSKKVGKWLAHEKQGNINEEDALKLYKRGCIPLIIKNAFLECCKDNSILLVCGTFFVFDEVLNVFDIHSDMQDTIFMNEPSLV"}}, "key": {"[1]": {"target": "PfDHFS–FPGS (FPGS activity) (Plasmodium falciparum, UniProt Q8IE69)", "experiment": "biochemical", "assay_type": "biochemical", "procedure": "(§1) A standard reaction mix based on those established for bacterial and eukaryotic DHFS/FPGS assays was adopted [[28,36,37]] and contained 10 mM MgCl2, 5 mM DTT, 200 mM KCl, 100 mM Tris, 50 mM glycine, 1 mg/ml BSA, 45 μg/ml DHFS–FPGS protein (0.72 μM), pH 10. […] The enzyme reactions were carried out at 37 °C for 60 min in triplicate and stopped by transferring reaction tubes into an ice-cold water bath. Reaction mixes were then spotted onto DE81 ion-exchange paper (pre-treated with 0.5 M EDTA, pH 8.0 and then dried), air dried and the unreacted label washed away with 125 ml of 40 mM NaCl, 10 mM Tris–HCl, pH 8.0, four times, 20 min each wash. The filter was then exposed to a storage phosphor screen overnight and the screen scanned with a quantitative imager (Typhoon Trio Variable Mode Imager, GE Healthcare, UK). The measured counts were converted to concentrations by comparison with a standard curve derived from known amounts of the radiolabelled L-glutamate subsequently used as substrate in the assays. The enzyme activity data was analysed using the Matlab software package. Regression curves were fitted using the least squares routine."}, "[2]": {"tested_on": "bacterial and mammalian FPGS", "settings": "read-out: Km with bacterial and mammalian FPGS; cited from earlier work"}, "P. falciparum FCB strain": {"tested_on": "P. falciparum FCB strain", "experiment": "Metabolic labelling of parasite cultures with 3H-folinic acid and 3H-methotrexate, HPLC analysis", "assay_type": "cell-based, Plasmodium falciparum", "settings": "for conversion to polyglutamylated forms in parasite cultures: 3H label 0.5 μCi/ml, ring-stage culture, 20 h incubation, HPLC", "procedure": "0.5 μCi/ml of either ^3H-folinic acid or ^3H-methotrexate at the same specific activity was used to label parallel 50 ml synchronous cultures of P. falciparum FCB strain. Label was incubated with ring-stage (6–10 h) parasites, which were harvested at the late trophozoite stage 20 h later. The labelled products were extracted by the boiling method and analysed using HPLC on a C18 column eluted with an acetonitrile gradient as described."}, "[3]": {"target": "PfDHFS–FPGS (DHFS activity) (Plasmodium falciparum, UniProt Q8IE69)", "experiment": "DHFS assay of recombinant PfDHFS–FPGS ([14C]glutamate incorporation)", "assay_type": "biochemical", "settings": "for Km: low co-substrate concentrations (ATP or glutamate ≤25 μM), Michaelis–Menten fit, read-out: apparent Km, DHFS activity", "procedure": "as §1"}, "bacterial DHFS": {"tested_on": "bacterial DHFS", "settings": "cited from earlier work"}, "P. falciparum cultures": {"tested_on": "P. falciparum cultures", "experiment": "Growth of P. falciparum cultures (dose–response)", "assay_type": "cell-based, Plasmodium falciparum"}, "[4]": {"substrate": "N[C@@H](CCC(=O)O)C(=O)O", "experiment": "DHFS assay of recombinant PfDHFS–FPGS ([14C]glutamate incorporation)", "assay_type": "biochemical", "settings": "other: low co-substrate concentrations (ATP or glutamate ≤25 μM), Michaelis–Menten fit; 37.0 °C", "procedure": "as §1"}, "[5]": {"settings": "low substrate concentrations, 25 μM substrate, 25 μM ATP, 18 μM glutamate"}}, "note": "“Also recorded” adds a separate entry of the source. Like-named read-outs stand apart in the source and are kept apart here."}
{"molecule": "5,6,7,8-tetrahydrofolate [THF]", "values": [{"measurement": "processing as substrate for polyglutamylation by FPGS activity (words)", "setting": "[1]", "result": "efficiently converted to polyglutamylated forms"}, {"measurement": "Km", "setting": "[2]", "result": "2 to 5", "unit": "µM"}]}
{"molecule": "Nc1nc(=O)c2c([nH]1)NCC(CNc1ccc(C(=O)N[C@@H](CCC(=O)O)C(=O)O)cc1)N2C=O", "note": "(mixture of isomers) [folinic acid]", "values": [{"measurement": "conversion to polyglutamylated forms in parasite cultures", "setting": "P. falciparum FCB strain", "result": "almost complete"}]}
{"molecule": "Nc1ncnc2c1ncn2[C@@H]1O[C@H](COP(=O)(O)OP(=O)(O)OP(=O)(O)O)[C@@H](O)[C@H]1O", "note": "[ATP]", "values": [{"measurement": "Km", "setting": "[3]", "result": 22.8, "unit": "µM"}]}
{"molecule": "Nc1nc(=O)c2c([nH]1)NCC(CNc1ccc(C(=O)N[C@@H](CCC(=O)O)C(=O)O)cc1)=N2", "note": "[DHF, 7,8-dihydrofolate]", "values": [{"measurement": "processing as substrate for polyglutamylation by FPGS activity (words)", "setting": "[1]", "result": "very poor substrates"}, {"measurement": "polyglutamylated forms of folate produced compared with that produced from THF", "setting": "[1]; high substrate concentrations, 100 μM substrate, 2 mM ATP, 200 μM glutamate", "result": 12, "unit": "%"}, {"measurement": "processing as substrate for polyglutamylation by FPGS activity (words)", "setting": "[1]; listed as dihydrofolate", "result": "negligibly processed"}, {"measurement": "polyglutamylated forms of folate produced compared with that produced from THF", "setting": "[1]; [5]", "result": 21, "unit": "%"}]}
{"molecule": "Nc1nc2c(c(=O)[nH]1)N=C(CNc1ccc(C(=O)O)cc1)CN2", "note": "[DHP, 7,8-dihydropteroate]", "values": [{"measurement": "DHP concentration at which DHFS activity peaked", "setting": "[3]; ATP 0.5 mM, glutamate up to ∼1 mM", "result": "1 to 2", "unit": "µM"}, {"measurement": "dissociation constant KA for the substrate binding (catalytic site)", "setting": "[3]; best-fit model a (partial substrate inhibition, three substrates), ATP 6 μM to 5 mM, glutamate 25 μM to 1 mM, n = 15", "result": 0.50, "unit": "µM"}, {"measurement": "Kd", "setting": "[3]; best-fit model a, ATP 6 μM to 5 mM, glutamate 25 μM to 1 mM, n = 15, read-out: dissociation constant KABCA for the substrate (DHP) inhibition (inhibitory site)", "result": 1250, "unit": "nM"}, {"measurement": "DHP concentration above which substrate inhibition became significant", "setting": "[3]; high ATP and glutamate", "result": "> 2", "unit": "µM"}, {"measurement": "Km", "setting": "[3]", "result": 0.88, "unit": "µM"}, {"measurement": "Km", "setting": "bacterial DHFS", "result": "0.4 to 6", "unit": "µM"}]}
{"molecule": "Nc1nc2c(c(=O)[nH]1)N=C(CNc1ccc(P(=O)(O)CC(CCC(=O)O)C(=O)O)cc1)CN2", "note": "(stereo not shown) [H2-1]", "values": [{"measurement": "IC50", "setting": "[3]", "result": 410, "unit": "nM"}, {"measurement": "Ki", "setting": "[3]", "result": 140, "unit": "nM"}, {"measurement": "potency for DHFS activity over FPGS activity", "setting": "[3]; from Ki values", "result": "about 5 fold"}, {"measurement": "Ki", "setting": "[1]", "result": 630, "unit": "nM"}]}
{"molecule": "Nc1nc2c(c(=O)[nH]1)N=C(CNc1ccc(C(=O)N[C@@H](CCP(=O)(O)CC(CCC(=O)O)C(=O)O)C(=O)O)cc1)CN2", "note": "(stereo partly shown) [H2-2]", "values": [{"measurement": "Ki", "setting": "[3]", "result": 1690, "unit": "nM"}, {"measurement": "IC50", "setting": "[1]", "result": 390, "unit": "nM"}, {"measurement": "Ki", "setting": "[1]", "result": 91, "unit": "nM"}, {"measurement": "potency for FPGS activity over DHFS activity", "setting": "[1]; from Ki values", "result": "~20", "unit": "fold"}]}
{"molecule": "CN(Cc1cnc2nc(N)nc(N)c2n1)c1ccc(C(=O)N[C@@H](CCC(=O)O)C(=O)O)cc1", "note": "[MTX, methotrexate]", "values": [{"measurement": "inhibition of DHFS activity", "setting": "[3]; MTX up to 1.0 mM, DHP 10 μM, ATP 5 mM, glutamate 275 μM", "result": "inhibited neither DHFS nor FPGS; also recorded: neither the DHFS nor FPGS activities showed any sensitivity"}, {"measurement": "processing as substrate for polyglutamylation by FPGS activity (words)", "setting": "[1]", "result": "negligibly processed; also recorded: not a substrate"}, {"measurement": "inhibition of FPGS activity", "setting": "[1]; MTX up to 1.0 mM, THF 10 μM, ATP 5 mM, glutamate 275 μM", "result": "inhibited neither DHFS nor FPGS; also recorded: neither the DHFS nor FPGS activities showed any sensitivity"}, {"measurement": "conversion to polyglutamylated forms in parasite cultures", "setting": "P. falciparum FCB strain", "result": "no polyglutamylated versions of MTX could be detected; also recorded: No polyglutamylated forms of MTX could be detected"}, {"measurement": "accumulation (uptake and retention) in parasites", "setting": "P. falciparum FCB strain; equal initial label concentrations, 20 h", "result": "somewhat higher levels than folinic acid; also recorded: exceeded that of folinic acid"}, {"measurement": "IC50", "setting": "P. falciparum cultures; Plasmodium falciparum, average for four different strains", "result": "~40", "unit": "nM"}, {"measurement": "effect on parasite growth at extremely low levels", "setting": "P. falciparum cultures; around 1 nM", "result": "stimulatory effect on growth"}]}
{"molecule": "Nc1nc2ncc(CNc3ccc(P(=O)(O)CC(CCC(=O)O)C(=O)O)cc3)nc2c(=O)[nH]1", "note": "(stereo not shown) [compound 1, 2-[[[4-[N-[(2-amino-3,4-dihydro-4-oxo-6-pteridinyl)methyl]amino]phenyl](hydroxy)phosphinoyl]methyl]pentane-1,5-dioic acid]", "values": [{"measurement": "strong inhibition of DHFS activity by the oxidised form", "setting": "[3]; oxidised (unreduced) form", "result": "not its oxidised form"}]}
{"molecule": "Nc1nc(=O)c2nc(CNc3ccc(C(=O)N[C@@H](CCC(=O)O)C(=O)O)cc3)cnc2[nH]1", "note": "[folic acid]", "values": [{"measurement": "processing as substrate for polyglutamylation by FPGS activity (words)", "setting": "[1]", "result": "very poor substrates; also recorded: very low level of activity"}, {"measurement": "processing as substrate for polyglutamylation by FPGS activity (words)", "setting": "[1]; listed as folate", "result": "negligibly processed"}, {"measurement": "polyglutamylated forms of folate produced compared with that produced from THF", "setting": "[1]; [5]", "result": "insignificant"}]}
{"molecule": "B1", "values": [{"measurement": "Km", "setting": "[4]", "result": 5.97, "unit": "µM"}]}
